Experimental data reported in patent US9624182B2, “Compounds as lysophosphatidic acid receptor antagonists” (Amira Pharmaceuticals, Inc., priority 2009, dated 2017).

Target: T1, human LPA1 (Homo sapiens, UniProt Q92633)
T1 construct: the full-length cDNA for human LPA1 was obtained by PCR of the reverse transcription reaction; expressed in transfected cells
Assay: LPA1 calcium flux assay
Format: cell-based
Conditions: CHO cells expressing human LPA1, stimulated with 10 nM LPA; read-out: HLPA1 Ca Flux IC50
Method: A 1.1 kb cDNA encoding the human LPA1 receptor was cloned from human lung. Human lung RNA (Clontech Laboratories, Inc. USA) was reverse transcribed using the RETROscript kit (Ambion, Inc.) and the full-length cDNA for human LPA1 was obtained by PCR of the reverse transcription reaction. The nucleotide sequence of the cloned human LPA1 was determined by sequencing and confirmed to be identical to the published human LPA1 sequence (An et al. Biochenm. Biophys. Res. Commun. 231:619 (1997). The cDNA was cloned into the pCDNA5/FRT expression plasmid and transfected in CHO cells using lipofectamine 2000 (Invitrogen Corp., USA). Clones stably expressing human LPA1 were selected using hygromycin and identified as cells that show Ca-influx in response to LPA.
Human LPA1 or LPA3 expressing CHO cells are seeded at 20,000-45,000 cells per well in a 96-well poly-D-lysine coated plate one or two days before the assay. Prior to the assay, the cells are washed once with PBS and then cultured in serum-free media overnight. On the day of the assay, a calcium indicator dye (Calcium 4, Molecular Devices) in assay buffer (HBSS with Ca^2+ and Mg^2+ and containing 20 mM Hepes and 0.3% fatty-acid free human serum albumin) is added to each well and incubation continued for 1 hour at 37° C. 10 μl of test compounds in 2.5% DMSO are added to the cells and incubation continued at room temperature for 30 minutes. Cells are the stimulated by the addition of 10 nM LPA and intracellular Ca^2+ measured using the Flexstation 3 (Molecular Devices). IC50s are determined using Graphpad prism analysis of drug titration curves.

T1 sequence (Q92633 whole entry): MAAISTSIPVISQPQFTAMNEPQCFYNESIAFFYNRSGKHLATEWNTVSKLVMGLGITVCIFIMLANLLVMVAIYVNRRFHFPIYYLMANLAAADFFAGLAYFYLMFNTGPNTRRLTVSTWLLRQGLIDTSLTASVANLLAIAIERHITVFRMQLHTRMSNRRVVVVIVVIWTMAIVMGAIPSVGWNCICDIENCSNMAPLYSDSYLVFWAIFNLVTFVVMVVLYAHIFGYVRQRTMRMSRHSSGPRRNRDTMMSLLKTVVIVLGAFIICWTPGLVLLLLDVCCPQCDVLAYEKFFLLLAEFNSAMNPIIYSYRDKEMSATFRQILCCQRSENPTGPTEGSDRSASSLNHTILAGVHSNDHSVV

Row | IC50 [nM] | SMILES
1 | 1000 to 50000 | Cc1noc(-c2ccc(-c3ccccc3C3(C(=O)O)CC3)cc2)c1/C=C\CCc1ccccc1 [Compound 1-62, 1-{4′-[3-Methyl-4-((Z)-4-phenyl-but-1-enyl)-isoxazol-5-yl]-biphenyl-2-yl}-cyclopropanecarboxylic acid]
2 | 1000 to 50000 | Cc1noc(-c2ccc(-c3ccc(C4(C(=O)O)CC4)cc3)cc2)c1Nc1cccc(C(=O)NCCN(C)C)n1 [Compound 1-299, 1-(4′-{4-[6-(2-Dimethylamino-ethylcarbamoyl)-pyridin-2-ylamino]-3-methyl-isoxazol-5-yl}-biphenyl-4-yl)-cyclopropanecarboxylic acid]
3 | < 300 | Cc1noc(-c2ccc(-c3ccc(C4(C(=O)O)CC4)cc3)cc2)c1CSCC(C)C [Compound 1-96, 1-[4′-(4-Isobutylsulfanylmethyl-3-methyl-isoxazol-5-yl)-biphenyl-4-yl]-cyclopropanecarboxylic acid]
4 | 300 to 1000 | Cc1noc(-c2ccc(-c3ccc(C4(C(=O)O)CC4)cc3)cc2)c1NC(=O)NCc1c(F)cccc1F [Compound 1-16, 1-(4′-{4-[3-(2,6-Difluoro-benzyl)-ureido]-3-methyl-isoxazol-5-yl}-biphenyl-4-yl)-cyclopropanecarboxylic acid]
5 | < 300 | Cc1noc(-c2ccc(-c3ccc(C4(C(=O)O)CC4)cc3)cc2)c1CCOCC1CC1 [Compound 1-35, 1-{4′-[4-(2-Cyclopropylmethoxy-ethyl)-3-methyl-isoxazol-5-yl]-biphenyl-4-yl}-cyclopropanecarboxylic acid]
6 | 1000 to 50000 | Cc1cnn(Cc2c(C)noc2-c2ccc(-c3ccc(C4(C(=O)O)CC4)cc3)cc2)c1 [Compound 1-194, 1-{4′-[3-Methyl-4-(4-methyl-pyrazol-1-ylmethyl)-isoxazol-5-yl]-biphenyl-4-yl}-cyclopropanecarboxylic acid]
7 | > 50000 | Cc1noc(-c2ccc(-c3ccc(C4(C(=O)O)CC4)cc3)cc2)c1CNCC1CCCCC1 [Compound 1-28, 1-(4′-{4-[(Cyclohexylmethyl-amino)-methyl]-3-methyl-isoxazol-5-yl}-biphenyl-4-yl)-cyclopropanecarboxylic acid]
8 | 1000 to 50000 | Cc1noc(-c2ccc(-c3ccc(C4(C(=O)O)CC4)cc3)cc2)c1Nc1cccnc1 [Compound 1-290, 1-{4′-[3-Methyl-4-(pyridin-3-ylamino)-isoxazol-5-yl]-biphenyl-4-yl}-cyclopropanecarboxylic acid]
9 | 1000 to 50000 | Cc1noc(-c2ccc(-c3ccccc3CCC(=O)O)cc2)c1C(O)CCCc1ccccc1 (centres unmarked) [Compound 1-201, 3-{4′-[4-(1-Hydroxy-4-phenyl-butyl)-3-methyl-isoxazol-5-yl]-biphenyl-2-yl}-propionic acid]
10 | < 300 | Cc1noc(-c2ccc(-c3ccc(C4(C(=O)O)CC4)cc3)cc2)c1Nc1cncc(OC(C)C)c1 [Compound 1-310, 1-{4′-[4-(5-Isopropoxy-pyridin-3-ylamino)-3-methyl-isoxazol-5-yl]-biphenyl-4-yl}-cyclopropanecarboxylic acid]
11 | < 300 | Cc1noc(-c2ccc(-c3ccc(C4(C(=O)O)CC4)cc3)cc2)c1CC(=O)N(C)Cc1ccccc1F [Compound 1-91, 1-[4′-(4-{[(2-Fluoro-benzyl)-methyl-carbamoyl]-methyl}-3-methyl-isoxazol-5-yl)-biphenyl-4-yl]-cyclopropanecarboxylic acid]
12 | < 300 | Cc1noc(-c2ccc(-c3ccc(C4(C(=O)O)CC4)cc3)cc2)c1CNC(=O)C(C)(C)c1ccccc1 [Compound 1-98, 1-(4′-{3-Methyl-4-[(2-methyl-2-phenyl-propionylamino)-methyl]-isoxazol-5-yl}-biphenyl-4-yl)-cyclopropanecarboxylic acid]
13 | < 300 | Cc1noc(-c2ccc(-c3ccc(C4(C(=O)O)CC4)cc3)cc2)c1NC(C)CCc1ccccc1 (single isomer, unassigned) [Compound 1-221, 1-{4′-[3-Methyl-4-(1-methyl-3-phenyl-propylamino)-isoxazol-5-yl]-biphenyl-4-yl}-cyclopropanecarboxylic acid]
14 | 1000 to 50000 | Cc1noc(-c2ccc(-c3ccc(C4(C(=O)O)CC4)cc3)cc2)c1NC(=O)CC(C)C [Compound 1-3, 1-{4′-[3-Methyl-4-(3-methyl-butyrylamino)-isoxazol-5-yl]-biphenyl-4-yl}-cyclopropanecarboxylic acid]
15 | > 50000 | Cc1noc(-c2ccc(-c3ccc(C4(C(=O)O)CC4)cc3)cc2)c1CC(=O)N[C@@H]1CCc2ccccc21 [Compound 1-65, 1-{4′-[4-(Indan-1-ylcarbamoylmethyl)-3-methyl-isoxazol-5-yl]-biphenyl-4-yl}-cyclopropanecarboxylic acid]
16 | 300 to 1000 | Cc1noc(-c2ccc(-c3ccc(C4(CC(=O)O)CC4)cc3)cc2)c1/C=C/CCc1ccccc1 [Compound 1-102, (1-{4′-[3-Methyl-4-((E)-4-phenyl-but-1-enyl)-isoxazol-5-yl]-biphenyl-4-yl}-cyclopropyl)-acetic acid]
17 | > 50000 | Cc1noc(-c2ccc(-c3ccc(C4(C(=O)O)CC4)cc3)cc2)c1C[S+]([O-])Cc1ccccc1 (centres unmarked) [Compound 1-52, 1-[4′-(3-Methyl-4-phenylmethanesulfinylmethyl-isoxazol-5-yl)-biphenyl-4-yl]-cyclopropanecarboxylic acid]
18 | < 300 | Cc1noc(-c2ccc(-c3ccc(C4(C(=O)O)CC4)cc3)cc2)c1/C=C/[S+]([O-])Cc1ccccc1 (single isomer, unassigned) [Compound 1-262, 1-(4′-{3-Methyl-4-[(E)-2-(phenylmethanesulfinyl)-vinyl]-isoxazol-5-yl}-biphenyl-4-yl)-cyclopropanecarboxylic acid]
19 | < 300 | Cc1noc(-c2ccc(-c3ccc(C4(C(=O)O)CC4)cc3)cc2)c1NC(C)C(O)Cc1ccccc1 (single isomer, unassigned) [Compound 1-283, 1-{4′-[4-(2-Hydroxy-1-methyl-3-phenyl-propylamino)-3-methyl-isoxazol-5-yl]-biphenyl-4-yl}-cyclopropanecarboxylic acid]
20 | < 300 | Cc1noc(-c2ccc(-c3ccc(C4(C(=O)O)CC4)cc3)cc2)c1CS(=O)(=O)CCc1ccccc1 [Compound 1-55, 1-{4′-[3-Methyl-4-(2-phenyl-ethanesulfonylmethyl)-isoxazol-5-yl]-biphenyl-4-yl}-cyclopropanecarboxylic acid]
21 | < 300 | Cc1noc(-c2ccc(-c3ccc(C4(CC(=O)O)CC4)cc3)cc2)c1NC(C)c1ccc2ccccc2c1 (centres unmarked) [Compound 1-206, (1-{4′-[3-Methyl-4-(1-naphthalen-2-yl-ethylamino)-isoxazol-5-yl]-biphenyl-4-yl}-cyclopropyl)-acetic acid]
22 | < 300 | Cc1noc(-c2ccc(-c3ccc(C(Cc4ccccc4)C(=O)O)cc3)cc2)c1CSCCc1ccccc1 (centres unmarked) [Compound 1-145, 2-[4′-(3-Methyl-4-phenethylsulfanylmethyl-isoxazol-5-yl)-biphenyl-4-yl]-3-phenyl-propionic acid]
23 | < 300 | Cc1noc(-c2ccc(-c3ccc(C4(CC(=O)O)CC4)cc3)cc2)c1/C=C\CCc1ccccc1 [Compound 1-101, (1-{4′-[3-Methyl-4-((Z)-4-phenyl-but-1-enyl)-isoxazol-5-yl]-biphenyl-4-yl}-cyclopropyl)-acetic acid]
24 | 1000 to 50000 | Cc1noc(-c2ccc(-c3ccc(C4(C(=O)O)CC4)cc3)cc2)c1CCC(=O)NC1CC1 [Compound 1-39, 1-{4′-[4-(2-Cyclopropylcarbamoyl-ethyl)-3-methyl-isoxazol-5-yl]-biphenyl-4-yl}-cyclopropanecarboxylic acid]
25 | < 300 | Cc1noc(-c2ccc(-c3ccc(C4CC4C(=O)O)cc3)cc2)c1[C@@H](O)COCc1ccccc1 (stereo partly drawn) [Compound 1-215, (cis)-2-{4′-[4-((R)-2-Benzyloxy-1-hydroxy-ethyl)-3-methyl-isoxazol-5-yl]-biphenyl-4-yl}-cyclopropanecarboxylic acid]
26 | < 300 | Cc1noc(-c2ccc(-c3ccc(C4(C(=O)O)CC4)cc3)cc2)c1NC(C)CCc1cccc(Cl)c1 (single isomer, unassigned) [Compound 1-240, 1-(4′-{4-[3-(3-Chloro-phenyl)-1-methyl-propylamino]-3-methyl-isoxazol-5-yl}-biphenyl-4-yl)-cyclopropanecarboxylic acid]
27 | < 300 | Cc1noc(-c2ccc(-c3ccc(C4(C(=O)O)CC4)cc3)cc2)c1C(O)CN[C@H]1CCc2ccccc21 (stereo partly drawn) [Compound 1-187, 1-(4′-{4-[1-Hydroxy-2-((S)-indan-1-ylamino)-ethyl]-3-methyl-isoxazol-5-yl}-biphenyl-4-yl)-cyclopropanecarboxylic acid]
28 | < 300 | Cc1noc(-c2ccc(-c3ccc(C4(C(=O)O)CC4)cc3)cc2)c1NC(C)/C=C/c1ccccc1 (centres unmarked) [Compound 1-288, 1-{4′-[3-Methyl-4-((E)-1-methyl-3-phenyl-allylamino)-isoxazol-5-yl]-biphenyl-4-yl}-cyclopropanecarboxylic acid]

Row | SMILES | IC50 [nM]
29 | CCCCOc1cccc(Nc2c(C)noc2-c2ccc(-c3ccc(C4(C(=O)O)CC4)cc3)cc2)n1 [Compound 1-295, 1-{4′-[4-(6-Butoxy-pyridin-2-ylamino)-3-methyl-isoxazol-5-yl]-biphenyl-4-yl}-cyclopropanecarboxylic acid] | < 300
